Measured values published in patent US9902696B2, “1,4-substituted piperidine derivatives” (Cephalon, Inc., priority 2015, dated 2018).
Structures can show the parent of a compound that is named as a salt.

Molecular target: T1, recombinant human baculovirus-expressed GST-tagged FASN (Homo sapiens, UniProt P49327)
T1 construct: GST
Assay: FASN enzyme activity assay, fluorescence-based detection of CoA with CPM
Assay type: biochemical
Conditions: 5 nM FASN, 150 μM NADPH, 10 μM acetyl-CoA, 25 μM malonyl-CoA, 90 minutes incubation; read-out: IC50 data for Additional Compounds of Formulae I-V(a): Activity
Source text: FASN Enzyme activity may be determined by detecting coenzyme A (CoA), a product of FASN-catalyzed synthesis of palmitate from acetyl-CoA and malonyl-CoA with NADPH as a cofactor. The assay is fluorescence-based and measures the interaction of free CoA with 7-diethylamino-3-(4′-malemimidylphenyl)-4-methylcoumarin (CPM; Life Technologies, CA) as described in Chung et al (2008). The coumarin derivative CPM contains a thiol-reactive maleimide that becomes fluorescent upon interaction with the sulfhydryl group of CoA.
For the example compounds described herein, the reaction was performed in 384-well low volume non-binding plates (Corning, N.Y.) using recombinant human baculovirus-expressed GST-tagged FASN. The 20-μL assay mixture contained 50 mM HEPES (pH 7.5), 5 nM FASN, 150 μM NADPH (Sigma, St. Louis, Mo.), 10 μM acetyl-CoA (Sigma), 25 μM malonyl-CoA (Sigma) and test compound [diluted in dimethyl sulfoxide (DMSO); 0.5% DMSO final in assay after 100 nL addition]. See, Chung et al.; “A fluorescence-based thiol quantification assay for ultra-high-throughput screening for inhibitors of coenzyme A production,” Assay Drug Dev Tech 2008; 6:361-374.
The reaction was initiated by adding malonyl-CoA, followed by incubation for 90 minutes at […]. A stock solution of the CPM reagent was prepared in DMSO at […] and stored at […]. To detect CoA produced in the FASN reaction, the CPM stock was diluted to […] in 70% ethanol and added at 4 μL/well to the assay plate. The reaction mixture was then incubated for 30 minutes. Fluorescence was measured using the EnVision™ 2102 multi-label plate reader (PerkinElmer, Waltham, Mass.) utilizing a general dual mirror, a 390 nm excitation filter and a 530 nm emission filter. Data analysis was performed using ActivityBase (IDBS, Guilford, UK). IC50 values were calculated by plotting the percent inhibition versus log 10 of the concentration of the compound, and fitting to the nonlinear regression sigmoidal dose-response (variable slope) equation in XLFit (IDBS).

T1 sequence (P49327 whole entry): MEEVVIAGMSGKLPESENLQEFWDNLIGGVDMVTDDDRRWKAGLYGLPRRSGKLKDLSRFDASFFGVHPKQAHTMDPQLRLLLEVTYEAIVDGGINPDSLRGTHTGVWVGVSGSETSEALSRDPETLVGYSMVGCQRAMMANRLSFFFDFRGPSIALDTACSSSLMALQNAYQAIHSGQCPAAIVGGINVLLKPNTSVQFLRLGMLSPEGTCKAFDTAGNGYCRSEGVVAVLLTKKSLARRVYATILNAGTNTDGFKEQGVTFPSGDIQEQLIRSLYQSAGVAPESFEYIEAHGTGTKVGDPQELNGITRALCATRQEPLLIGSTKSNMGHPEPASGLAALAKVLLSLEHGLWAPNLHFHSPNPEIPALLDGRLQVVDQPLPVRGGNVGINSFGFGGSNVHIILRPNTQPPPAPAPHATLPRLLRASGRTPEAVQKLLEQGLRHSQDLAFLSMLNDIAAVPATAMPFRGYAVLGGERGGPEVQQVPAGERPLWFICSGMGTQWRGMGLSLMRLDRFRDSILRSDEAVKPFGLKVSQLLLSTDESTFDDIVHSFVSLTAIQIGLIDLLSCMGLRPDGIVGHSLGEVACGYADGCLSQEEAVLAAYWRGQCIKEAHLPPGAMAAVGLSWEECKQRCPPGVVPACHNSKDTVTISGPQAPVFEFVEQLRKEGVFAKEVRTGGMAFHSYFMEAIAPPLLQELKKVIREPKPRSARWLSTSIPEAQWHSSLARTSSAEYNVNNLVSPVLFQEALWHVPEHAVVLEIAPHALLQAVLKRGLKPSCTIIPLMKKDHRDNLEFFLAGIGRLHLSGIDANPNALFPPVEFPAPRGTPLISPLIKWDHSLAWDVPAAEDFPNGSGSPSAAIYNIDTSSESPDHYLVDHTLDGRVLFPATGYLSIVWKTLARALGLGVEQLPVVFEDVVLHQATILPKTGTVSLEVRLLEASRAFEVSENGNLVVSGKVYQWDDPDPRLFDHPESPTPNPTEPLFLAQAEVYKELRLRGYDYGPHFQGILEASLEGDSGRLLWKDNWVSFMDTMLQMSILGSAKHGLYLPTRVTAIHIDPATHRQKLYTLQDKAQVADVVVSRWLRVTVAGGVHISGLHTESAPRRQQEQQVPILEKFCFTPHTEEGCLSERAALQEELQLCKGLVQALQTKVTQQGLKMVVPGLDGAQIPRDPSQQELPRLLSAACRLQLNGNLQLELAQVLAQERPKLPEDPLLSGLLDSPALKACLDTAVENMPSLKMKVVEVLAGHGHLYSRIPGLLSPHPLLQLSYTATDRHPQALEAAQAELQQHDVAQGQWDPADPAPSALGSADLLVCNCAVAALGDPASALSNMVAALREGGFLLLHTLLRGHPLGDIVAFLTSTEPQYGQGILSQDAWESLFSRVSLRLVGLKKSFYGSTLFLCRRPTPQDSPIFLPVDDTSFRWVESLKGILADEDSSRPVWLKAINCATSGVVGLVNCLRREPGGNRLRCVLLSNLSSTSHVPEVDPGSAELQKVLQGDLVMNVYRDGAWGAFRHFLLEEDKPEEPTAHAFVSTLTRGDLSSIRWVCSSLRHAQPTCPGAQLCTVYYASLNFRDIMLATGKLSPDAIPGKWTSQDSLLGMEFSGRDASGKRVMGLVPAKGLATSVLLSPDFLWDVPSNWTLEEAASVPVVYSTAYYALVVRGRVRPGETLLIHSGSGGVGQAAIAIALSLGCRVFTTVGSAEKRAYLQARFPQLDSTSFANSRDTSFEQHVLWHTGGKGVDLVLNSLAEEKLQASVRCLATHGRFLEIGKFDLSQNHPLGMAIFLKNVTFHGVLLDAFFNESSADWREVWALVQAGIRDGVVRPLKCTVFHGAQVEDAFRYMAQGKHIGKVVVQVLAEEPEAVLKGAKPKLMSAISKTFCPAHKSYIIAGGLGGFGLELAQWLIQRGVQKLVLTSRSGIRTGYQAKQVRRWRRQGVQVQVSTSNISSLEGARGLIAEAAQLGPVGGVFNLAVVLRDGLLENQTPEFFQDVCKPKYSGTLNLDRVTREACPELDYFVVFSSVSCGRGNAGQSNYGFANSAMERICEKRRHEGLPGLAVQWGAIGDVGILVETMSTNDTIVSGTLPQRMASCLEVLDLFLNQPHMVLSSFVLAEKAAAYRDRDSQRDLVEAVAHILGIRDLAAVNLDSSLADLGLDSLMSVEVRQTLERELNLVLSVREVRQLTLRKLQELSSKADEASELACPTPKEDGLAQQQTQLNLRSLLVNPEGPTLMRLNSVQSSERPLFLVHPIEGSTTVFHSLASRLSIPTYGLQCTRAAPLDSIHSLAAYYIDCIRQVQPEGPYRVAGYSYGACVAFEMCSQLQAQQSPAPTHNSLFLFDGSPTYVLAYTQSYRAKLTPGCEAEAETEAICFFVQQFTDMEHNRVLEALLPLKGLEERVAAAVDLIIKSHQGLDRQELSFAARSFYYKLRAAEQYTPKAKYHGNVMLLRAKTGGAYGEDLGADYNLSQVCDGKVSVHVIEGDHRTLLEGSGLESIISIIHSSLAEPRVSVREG

Q: For `Cc1c(-c2ccc(OC3CCN(C(=O)N4CCN(C)CC4)CC3)cc2)ccc2nccn12` [Example 598, [4-[4-(5-Methylimidazo[1,2-a]pyridin-6-yl)phenoxy]-1-piperidyl]-(4-methylpiperazin-1-yl)methanone], which IC50 is on record?
A: 100 to 999 nM

Q: `Cc1c(-c2ccc(OC3CCN(C(=O)[C@@H]4CCCN4C)CC3)cc2)ccc2cccnc12` [Example 617, [(2S)-1-Methylpyrrolidin-2-yl]-[4-[4-(8-methyl-7-quinolyl)phenoxy]-1-piperidyl]methanone] was tested. Which IC50 did it give?
A: 1000 to 10000 nM

Q: `COCCOC(=O)N1CCC(Oc2ccc(-c3ccc4cccnc4c3C)cc2)CC1` [Example 555, 2-Methoxyethyl 4-[4-(8-methyl-7-quinolyl)phenoxy]piperidine-1-carboxylate, HCl] was tested. Which IC50 did it give?
A: 1000 to 10000 nM

Q: For `CONC(=O)N1CCC(Oc2ccc(-c3ccc4nccn4c3C)cc2)CC1` [Example 611, N-Methoxy-4-[4-(5-methylimidazo[1,2-a]pyridin-6-yl)phenoxy]piperidine-1-carboxamide], which IC50 is on record?
A: 1000 to 10000 nM

Same assay, conditions: 5 nM FASN, 150 μM NADPH, 10 μM acetyl-CoA, 25 μM malonyl-CoA, 90 minutes incubation; read-out: IC50 data for Compounds of Formulae I-V/V(a): Activity

Q: With `Cc1c(-c2ccc(OC3CCN(C(=O)NO)CC3)cc2)cnc2ccccc12` [Example 87, 4-[4-(4-Methylquinolin-3-yl)-phenoxy]-piperidine-1-carboxylic acid hydroxyamide] as the molecule, how does the IC50 read?
A: 1000 to 10000 nM

Q: With `O=C([C@H]1CCCO1)N1CCC(Oc2ccc(-c3cnc4cc(F)ccc4c3)cc2)CC1` [Example 479, {4-[4-(7-Fluoroquinolin-3-yl)-phenoxy]-piperidin-1-yl}-(R)-tetrahydro-furan-2-yl-methanone] as the molecule, how does the IC50 read?
A: 1 to 99 nM

Q: With `COc1cccc2ncc(-c3ccc(OC4CCN(C(=O)[C@H]5CCCO5)CC4)cc3)cc12` [Example 465, {4-[4-(5-Methoxyquinolin-3-yl)-phenoxy]-piperidin-1-yl}-(R)-tetrahydro-furan-2-yl-methanone, HCl] as the molecule, how does the IC50 read?
A: 100 to 999 nM

Q: `COc1ccc(-c2ccc(OC3CCN(C(=O)C(C)C)CC3)cc2)cc1OC` [Example 492, 1-[4-(3′,4′-Dimethoxybiphenyl-4-yloxy)-piperidin-1-yl]-2-methyl-propan-1-one] was tested. Which IC50 did it give?
A: 1000 to 10000 nM

Q: `CCC(=O)N1CCC(Oc2ccc(-c3ccnc(Oc4ccccc4)c3)cc2)CC1` [Example 409, 1-{4-[4-(2-Phenoxypyridin-4-yl)-phenoxy]-piperidin-1-yl}-propan-1-one] was tested. Which IC50 did it give?
A: 1000 to 10000 nM

Q: Which IC50 does the source give for `CCC(=O)N1CCC(Oc2ccc(-c3cnc4[nH]ccc4c3)cc2)CC1` [Example 32, 1-{4-[4-(1H-Pyrrolo[2,3-b]pyridin-5-yl)-phenoxy]-piperidin-1-yl}-propan-1-one] here?
A: 100 to 999 nM

Q: `CCC(=O)N1CCC(Oc2ccc(-c3ccnc(Nc4ccccc4)c3)cc2)CC1` [Example 404, 1-{4-[4-(2-Phenylaminopyridin-4-yl)-phenoxy]-piperidin-1-yl}-propan-1-one] was tested. Which IC50 did it give?
A: 1000 to 10000 nM

Q: Which IC50 does the source give for `COc1ccc2cc(-c3ccc(OC4CCN(C(=O)[C@H]5CCCO5)CC4)cc3)cnc2c1` [Example 262, {4-[4-(7-Methoxyquinolin-3-yl)-phenoxy]-piperidin-1-yl}-(R)-tetrahydro-furan-2-yl-methanone] here?
A: 1 to 99 nM

Q: Which IC50 does the source give for `CCC(=O)N1CC[C@@H](Oc2ccc(-c3ccc4cccnc4c3C)cc2)[C@H](F)C1` (relative stereo) [Example 373, 1-{trans-3-Fluoro-4-[4-(8-methylquinolin-7-yl)-phenoxy]-piperidin-1-yl}-propan-1-one, HCl] here?
A: 100 to 999 nM

Q: Which IC50 does the source give for `CCC(=O)N1CCC(Oc2ccc(-c3ccc4cccnc4c3NCCOC)cc2)CC1` [Example 328, 1-(4-{4-[8-(2-Methoxyethylamino)-quinolin-7-yl]-phenoxy}-piperidin-1-yl)-propan-1-one] here?
A: 100 to 999 nM

Q: For `CC(C)C(=O)N1CCC(Oc2ccc(-c3cncc(-c4ccccc4)c3)cc2)CC1` [Example 383], which IC50 is on record?
A: 1000 to 10000 nM

Q: How did the IC50 turn out when `O=C(C1CC1)N1CCC(Oc2ccc(-c3ccc(N4CCOCC4)nc3)cc2)CC1` [Example 387, Cyclopropyl-{4-[4-(6-morpholin-4-yl-pyridin-3-yl)-phenoxy]-piperidin-1-yl}-methanone] was run?
A: 1000 to 10000 nM

Q: With `CCC(=O)N1CCC(Oc2ccc(-c3cnc4ccccc4c3)c(C)c2)CC1` [Example 207, 1-[4-(3-Methyl-4-quinolin-3-yl-phenoxy)-piperidin-1-yl]-propan-1-one] as the molecule, how does the IC50 read?
A: 100 to 999 nM

Q: With `Cc1c(-c2ccc(OC3CCN(C(=O)C4CC4)C(C)C3)cc2)ccc2cccnc12` (racemic) [Example 365, Cyclopropyl-{2-methyl-4-[4-(8-methylquinolin-7-yl)-phenoxy]-piperidin-1-yl}-methanone HCl] as the molecule, how does the IC50 read?
A: 1000 to 10000 nM

Q: Which IC50 does the source give for `Cc1ccc2cc(-c3ccc(OC4CCN(C(=O)[C@H]5CCCO5)CC4)cc3)cnc2c1` [Example 482] here?
A: 1 to 99 nM

Q: For `Cc1c(-c2ccc(OC3CCN(C(=O)C4CC4(C)C)CC3)cc2)ccc2cccnc12` (stereo not drawn) [Example 322, (2,2-Dimethylcyclopropyl)-{4-[4-(8-methyl-quinolin-7-yl)-phenoxy]-piperidin-1-yl}-methanone], which IC50 is on record?
A: 1 to 99 nM

Q: For `COc1cc(-c2cnc3ccccc3c2)ccc1OC1CCN(C(=O)C2CC2)CC1` [Example 198, Cyclopropyl-[4-(2-methoxy-4-quinolin-3-yl-phenoxy)-piperidin-1-yl]-methanone], which IC50 is on record?
A: 1000 to 10000 nM

Q: `O=C(N1CCC(Oc2ccc(-c3ccn4cnnc4c3)cc2)CC1)C1(O)CC1` [Example 306, (1-Hydroxycyclopropyl)-[4-(4-[1,2,4]triazolo[4,3-a]pyridin-7-yl-phenoxy)-piperidin-1-yl]-methanone] was tested. Which IC50 did it give?
A: 1000 to 10000 nM

Q: `CC(C)C(=O)N1CCC(Oc2ccc(-c3ccc(C#N)cc3)cc2)CC1` [Example 494, 4′-(1-Isobutyrylpiperidin-4-yloxy)-biphenyl-4-carbonitrile] was tested. Which IC50 did it give?
A: 1000 to 10000 nM

Q: `O=C(c1ccccc1)N1CCC(Oc2ccc(-c3cnc4ccccc4c3)cc2)CC1` [Example 127, Phenyl-[4-(4-quinolin-3-yl-phenoxy)-piperidin-1-yl]-methanone, HCl] was tested. Which IC50 did it give?
A: 1000 to 10000 nM

Q: With `CC(=O)C(=O)N1CCC(Oc2ccc(-c3cnc4ccccc4c3C)cc2)CC1` [Example 72, 1-{4-[4-(4-Methylquinolin-3-yl)-phenoxy]-piperidin-1-yl}-propane-1,2-dione] as the molecule, how does the IC50 read?
A: 1 to 99 nM

Q: For `Cc1cncc2cc(-c3ccc(OC4CCN(C(=O)[C@H]5CCCO5)CC4)cc3)ccc12` [Example 459, {4-[4-(4-Methylisoquinolin-6-yl)-phenoxy]-piperidin-1-yl}-(R)-tetrahydrofuran-2-yl-methanone, HCl], which IC50 is on record?
A: 1 to 99 nM

Q: With `O=C(N1CCC(Oc2ccc(-c3cnc4ccccc4n3)cc2)CC1)N1CCCO1` [Example 81, Isoxazolidin-2-yl-[4-(4-quinoxalin-2-yl-phenoxy)-piperidin-1-yl]-methanone] as the molecule, how does the IC50 read?
A: 1 to 99 nM

Q: With `CCC(=O)N1CCC(Oc2ccc(-c3ccc4c(C)ncc(C)c4c3)cc2)CC1` [Example 469, 1-[4-[4-(1,4-Dimethyl-6-isoquinolyl)phenoxy]-1-piperidyl]propan-1-one, HCl] as the molecule, how does the IC50 read?
A: 100 to 999 nM

Q: How did the IC50 turn out when `O=C(C1CC1)N1CCC(Oc2ccc(-c3cnc4cccc(F)c4c3)cc2)CC1` [Example 30] was run?
A: 1 to 99 nM

Q: Which IC50 does the source give for `CCC(=O)N1CCC(Oc2ccc(-c3ccc4cccnc4c3OCCN3CCOCC3)cc2)CC1` [Example 171, 1-(4-{4-[8-(2-Morpholin-4-yl-ethoxy)-quinolin-7-yl]-phenoxy}-piperidin-1-yl)-propan-1-one, 2HCl] here?
A: 1000 to 10000 nM

Q: For `CN(c1ccc(-c2cnc3ccccc3c2)cc1)C1CCN(C(=O)C2CC2)CC1` [Example 525, Cyclopropyl-{4-[methyl-(4-quinolin-3-yl-phenyl)-amino]-piperidin-1-yl}-methanone, HCl], which IC50 is on record?
A: 100 to 999 nM

Q: With `CCC(=O)N1CCC(Oc2ccc(-c3ccc4cccnc4c3C)cc2)CC1C` (mixture of isomers) [Example 364, 1-{2-Methyl-4-[4-(8-methylquinolin-7-yl)-phenoxy]-piperidin-1-yl}-propan-1-one, HCl] as the molecule, how does the IC50 read?
A: 100 to 999 nM

Q: `CC(C)(C)OC(=O)N1CCC(Oc2ccc(-c3ccc(C#N)cc3)cc2)CC1` [Example 490, 4-(4′-Cyano-biphenyl-4-yloxy)-piperidine-1-carboxylic acid t-butyl ester] was tested. Which IC50 did it give?
A: 1000 to 10000 nM

Q: How did the IC50 turn out when `CCC(=O)N1CCC(C(=O)N(C)c2ccc(-c3ccc4cccnc4c3)cc2)CC1` [Example 150, 1-Propionyl-piperidine-4-carboxylic acid methyl-(4-quinolin-7-yl-phenyl)-amide] was run?
A: 100 to 999 nM

Q: `CCC(=O)N1CCC(Oc2ccc(-c3ccc4cnc(N(C)C)cc4c3)cc2)CC1` [Example 421, 1-{4-[4-(3-Dimethylaminoisoquinolin-6-yl)-phenoxy]-piperidin-1-yl}-propan-1-one] was tested. Which IC50 did it give?
A: 1000 to 10000 nM

Q: Which IC50 does the source give for `CCC(=O)N1CCC(Oc2ccc(-c3cnc4ccccc4c3)cc2F)CC1` [Example 6, 1-[4-(2-Fluoro-4-quinolin-3-yl-phenoxy)piperidin-1-yl]propan-1-one] here?
A: 1 to 99 nM
